Source: patent US9333244B2, “Composition and lipid formulation of a hyaluronan-degrading enzyme and the use thereof for treatment of benign prostatic hyperplasia” (Halozyme, Inc., priority 2011, dated 2016)

Legend:
[1] = system: TE-induced rat prostatic hyperplasia; test: Rat model of TE-induced prostatic hyperplasia: prostate weight; assay type: in vivo
Protocol: In this example, the ability of testosterone enanthate (TE) to induce prostatic hyperplasia in rat prostate was examined. Briefly, twenty-five (25) 8-week old male Sprague-Dawley rats (Harlan, USA) were dosed by intramuscular injection with 25 mg TE (Lot#80G010A, Abraxis Bioscience, Phoenix, Ariz.) per rat, once a week, on days 0, 7, 14 and 21. Five (5) out of 25 rats were sacrificed pre-TE treatment and 5 of the remaining 20 rats were sacrificed weekly. The ventral lobes of the prostates were harvested for analysis. […] Additionally, the increase in rat prostatic weight was linearly related to sustained TE exposure. The half-life of TE in the rat blood was approximately 10.5 days (Anderson R A, J Clin Endocrinol Metab., (1996) 81(3):896-901).
(§1) In this example, PEGPH20 was administered to TE-induced prostatic hyperplasic rats to evaluate its effect on prostate weight. Testosterone enanthate was administered by intramuscular injection and PEGPH20 (diluted in normal saline) was administered intravenously. Following treatment, the animals were sacrificed and the ventral lobes of the prostates were harvested for analysis. Prostate weight was measured using an electronic scale.
as §1, with “Testosterone” for “In this example, PEGPH20 was administered to TE-induced prostatic hyperplasic rats to evaluate its effect on prostate weight. Testosterone”
as §1, with “example, the time-dependence of treatment of rat BPH with” for “example,”, “evaluated by administering PEGPH20 at various time points.” for “administered to TE-induced prostatic hyperplasic rats to evaluate its effect on prostate weight.”
In this example, the effect of treatment with PEGPH20 was compared to treatment with finasteride using the rat TE-prostatic hyperplasia model. Testosterone enanthate was administered by intramuscular injection, PEGPH20 (diluted in normal saline) was administered intravenously and finasteride was administered intraperitoneally. On day 21 the animals were sacrificed and the ventral lobes of the prostates were harvested for analysis. Prostate weight was measured using an electronic scale.
In this example, the effect of combination therapy with PEGPH20 and finasteride was evaluated. PEGPH20 was administered at a dose of either 0.82 mg/kg (low dose) or 2 mg/kg (high dose). Testosterone enanthate was administered by intramuscular injection, PEGPH20 (diluted in normal saline) was administered intravenously and finasteride was administered intraperitoneally. On day 21 the animals were sacrificed and the ventral lobes of the prostates were harvested for analysis. Prostate weight was measured using an electronic scale.
Percent (%) inhibition was determined according to the formula: ((Control-treated)/Control)×100. […] The prostatic water content of each group was calculated from the wet weight and the dry weight and found to be the same for all groups (˜80%). Therefore, the change in prostate weight cannot be attributed to decreased tissue water.
Testosterone enanthate was administered by intramuscular injection, PEGPH20 was administered intravenously or by intra-prostatic injection and DepoGel vehicle or DepoPH20 were administered by intra-prostatic injection. On day 21 the animals were sacrificed and the ventral lobes of the prostates were harvested for analysis. Prostate weight was measured using an electronic scale.
(§2) In this study, 25 mg TE was administered […] to each rat on days 1 and 7. 50 μL of 4700 U/mL (0.18 mg/mL) MVL-PH20F40 and 50 μL MVL-Vehicle were administered intraprostatically on day 7. […]

[2] = system: prostatic stroma and stromal HA; test: Prostatic histology: stromal HA (biotinylated HABP) and stromal proliferation (H&E); assay type: in vivo; details: rat prostate stroma; substance alone (PEGPH20 0.82 mg/kg iv, day 12; TE 25 mg/rat im days 0 and 8, day 18)
Protocol: In this example, the effect of PEGPH20 on prostatic stroma and stromal HA of normal and TE-induced prostatic hyperplasia rats was analyzed by prostatic histology, including hematoxylin and eosin staining and IHC staining. Stromal proliferation was determined by visually comparing the size of the stroma. Testosterone enanthate was administered by intramuscular injection and PEGPH20 (diluted in normal saline) and control were administered intravenously. Following treatment, the animals were sacrificed and the ventral lobes of the prostates were harvested for analysis.
Prostate tissues were fixed in 10% neutral buffered formalin in PBS for 24 hours, dehydrated with gradient ethanol, cleared with xylene, and embedded in paraffin. Paraffin block was cut to 5 μm sections. Tissue sections were dewaxed, rehydrated and processed by standard hematoxylin and eosin (H&E) staining. Histochemical localization of HA was carried out using a biotinylated-HABP probe (bHABP, Cat#400763-1A, Associates of Cape Cod, Mass.). Sections were deparaffinized in xylene, 2×5 min, hydrated in 100% ethanol, for 2×3 min, and in 95% ethanol for 1 min, then rinsed in distilled water, incubated at 37° C. for 20 min in a trypsin solution, and rinsed in PBS for 2×2 min. […]

prostate stromal cells = test: TUNEL assay, apoptosis of stromal cells; assay type: in vivo, rat
Protocol: In this example, the ability of PEGPH20 to cause apoptosis of stromal cells was analyzed. In situ detection of cell apoptosis by TUNEL assay was based on a reaction for in situ terminal deoxynucleotidyl-transferase (TdT)-mediated biotinylated UTP nick-end labelling (TUNEL). This was essentially performed by using the FragEL DNA (Cat# QIA39-1EA, Calbiochem, Gibbstown, N.J.) according to the manufacturer's directions. In brief, de-paraffinized tissue sections were treated with proteinase K (0.02 mg/mL, Cat#25530, Invitrogen, Carlsbad, Calif.). The slides were then washed in Tris buffered saline (TBS), and endogenous peroxidase was blocked for 5 min in 3% H2O2 diluted in methanol. After washes in TBS, sections were treated with 1×TdT equilibration buffer at room temperature for 30 min and subsequently incubated with TdT labelling reaction mix ([…]) for 1.5 h at 37° C. The slides were rinsed in TBS and mounted using Fluorein-FragEL mounting media, then sealed with nail polish. The number of TUNEL-positive cells was counted on each section at ×200 under a light microscope.
as §2

[3] = cited from earlier work

| SMILES | increase in prostate size ([1]; 25 mg TE per rat im once a week for a month) | Prostatic Weight (g) Mean ± SD ([1]; TE 25 mg/rat days 0, 7, 14, sacrificed day 21) | Prostatic Weight Mean ± SD ([1]; TE 3 wks (25 mg/rat days 0, 7, 14), day 21) | increase in prostate weight post TE exposure ([1]; day 7, TE 25 mg/rat im) | increase in prostate weight post TE exposure ([1]; day 18, TE 25 mg/rat im days 0, 7 and 14) | Prostatic Weight (g) Mean ± SD ([1]; group 1: 3 wk TE (25 mg/rat days 0, 7, 14), day 21) | Prostatic Weight (g) Mean ± SD ([1]; group 1: TE 25 mg/rat days 0, 7, sacrificed day 28) | Prostatic Weight (g) Mean ± SD ([1]; group 2: TE 25 mg/rat days 0, 7, 14, 21, sacrificed day 28) | Prostatic Weight (g) Mean ± SD ([1]; group 3: TE 25 mg/rat days 0, 7, sacrificed day 21) | Effect on HA [2] | Effect on Stroma [2] | Apoptotic cells/section Mean ± SD (prostate stromal cells; TE 7 d) | Apoptotic cells/section Mean ± SD (prostate stromal cells; TE 18 d) | half-life of TE in the rat blood [3] | inhibition of prostate growth ([1]; TE days 0, 7, PEGPH20 0.82 mg/kg iv QOD days 7-20 or finasteride 25 mg/kg ip daily days 7-20, day 21, vs TE alone P<0.01) | reduction in prostate size relative to vehicle control ([1]; TE days 1 and 7, finasteride 2.5 mg/kg ip daily starting on day 7) | % Inhibit ([1]; group 4: 3 wk TE, finasteride (25 mg/kg ip daily, 2 wk)) | Prostatic Weight (g) Mean ± SD ([1]; group 4: 3 wk TE, finasteride (25 mg/kg ip daily, 2 wk), day 21, P 0.007) |
| --- | --- | --- | --- | --- | --- | --- | --- | --- | --- | --- | --- | --- | --- | --- | --- | --- | --- | --- |
| CCCCCCC(=O)O[C@H]1CC[C@H]2[C@@H]3CCC4=CC(=O)CC[C@]4(C)[C@H]3CC[C@]12C [TE, testosterone enanthate] | ~3 fold | 1.54 ± 0.07 g | 1.64 ± 0.12 g | 18.9% | 85.7% | 1.33 ± 0.23 g | 1.49 ± 0.47 g | 1.76 ± 0.18 g | 1.57 ± 0.09 g | Increased | Increased proliferation | 4.6 ± 2.51 cells/section | 1.75 ± 1.71 cells/section | approximately 10.5 days |  |  |  |  |
| CC(C)(C)NC(=O)[C@H]1CC[C@H]2[C@@H]3CC[C@H]4NC(=O)C=C[C@]4(C)[C@H]3CC[C@]12C [finasteride, (5α,17β)-N -(1,1-dimethethylethy)-3-oxo-4-azaandrost-1-ene-17-carboxamide] |  |  |  |  |  |  |  |  |  |  |  |  |  |  | approximately 37% | 18.7% | 25.2% | 1.00 ± 0.19 g |
